Results from patent publication US8192962B2, “Processes for detecting toxic substances” (Daikin Industries, Ltd., priority 2001, dated 2012).

System: Energy system protein genes
Experiment: DNA chip mRNA expression in yeast, energy system protein genes (Table 4)
Format: cell-based, Saccharomyces cerevisiae S288C
How it was run: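 S. cerevisiae S288C grown at 25° C. in YPD to log phase, then exposed 2 h to a toxicant at a growth-inhibiting, non-lethal concentration; untreated cells as control. Poly(A) mRNA reverse-transcribed with Cy3-dUTP or Cy5-dUTP, hybridized >12 h at 65° C. to whole-genome yeast DNA chip; value = fluorescence ratio treated/untreated.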

Structure (SMILES): COc1cc(CNC(=O)CCCCC=CC(C)C)ccc1O [(12), 8-methyl-N-vanillyl-6-nonenamide]
- The level of expressed mRNA in the presence of chemical substance/The level of expressed mRNA in the absence of chemical substance (yeast gene YAL060W): 0.8
- The level of expressed mRNA in the presence of chemical substance/The level of expressed mRNA in the absence of chemical substance (yeast gene YBL058W, cells incubated two hours with the chemical substance): 0.8
- The level of expressed mRNA in the presence of chemical substance/The level of expressed mRNA in the absence of chemical substance (yeast gene YBL099W, cells incubated two hours with the chemical substance): 1.0
- The level of expressed mRNA in the presence of chemical substance/The level of expressed mRNA in the absence of chemical substance (yeast gene YBR001C, cells incubated two hours with the chemical substance): 1.0
- The level of expressed mRNA in the presence of chemical substance/The level of expressed mRNA in the absence of chemical substance (yeast gene YBR185C, cells incubated two hours with the chemical substance): 0.7
- The level of expressed mRNA in the presence of chemical substance/The level of expressed mRNA in the absence of chemical substance (yeast gene YBR221C, cells incubated two hours with the chemical substance): 1.3
- The level of expressed mRNA in the presence of chemical substance/The level of expressed mRNA in the absence of chemical substance (yeast gene YCL040W): 2.3
- The level of expressed mRNA in the presence of chemical substance/The level of expressed mRNA in the absence of chemical substance (yeast gene YCR005C): 0.5
- The level of expressed mRNA in the presence of chemical substance/The level of expressed mRNA in the absence of chemical substance (yeast gene YCR012W): 1.2
- The level of expressed mRNA in the presence of chemical substance/The level of expressed mRNA in the absence of chemical substance (yeast gene YCR046C, cells incubated two hours with the chemical substance): 1.1
- The level of expressed mRNA in the presence of chemical substance/The level of expressed mRNA in the absence of chemical substance (yeast gene YCR105W, cells incubated two hours with the chemical substance): 0.9
- The level of expressed mRNA in the presence of chemical substance/The level of expressed mRNA in the absence of chemical substance (yeast gene YDL021W): 2.4
- The level of expressed mRNA in the presence of chemical substance/The level of expressed mRNA in the absence of chemical substance (yeast gene YDL067C, cells incubated two hours with the chemical substance): 1.0
- The level of expressed mRNA in the presence of chemical substance/The level of expressed mRNA in the absence of chemical substance (yeast gene YDL078C, cells incubated two hours with the chemical substance): 0.8
- The level of expressed mRNA in the presence of chemical substance/The level of expressed mRNA in the absence of chemical substance (yeast gene YDL107W, cells incubated two hours with the chemical substance): 1.0
- The level of expressed mRNA in the presence of chemical substance/The level of expressed mRNA in the absence of chemical substance (yeast gene YDL174C): 2.8
- The level of expressed mRNA in the presence of chemical substance/The level of expressed mRNA in the absence of chemical substance (yeast gene YDL181W, cells incubated two hours with the chemical substance): 0.9
- The level of expressed mRNA in the presence of chemical substance/The level of expressed mRNA in the absence of chemical substance (yeast gene YDR001C): 1.1
- The level of expressed mRNA in the presence of chemical substance/The level of expressed mRNA in the absence of chemical substance (yeast gene YDR050C, cells incubated two hours with the chemical substance): 1.4
- The level of expressed mRNA in the presence of chemical substance/The level of expressed mRNA in the absence of chemical substance (yeast gene YDR079W, cells incubated two hours with the chemical substance): 1.1
- The level of expressed mRNA in the presence of chemical substance/The level of expressed mRNA in the absence of chemical substance (yeast gene YDR178W, cells incubated two hours with the chemical substance): 1.3
- The level of expressed mRNA in the presence of chemical substance/The level of expressed mRNA in the absence of chemical substance (yeast gene YDR231C): 1.1
- The level of expressed mRNA in the presence of chemical substance/The level of expressed mRNA in the absence of chemical substance (yeast gene YDR298C, cells incubated two hours with the chemical substance): 1.1
- The level of expressed mRNA in the presence of chemical substance/The level of expressed mRNA in the absence of chemical substance (yeast gene YDR377W, cells incubated two hours with the chemical substance): 0.9
- The level of expressed mRNA in the presence of chemical substance/The level of expressed mRNA in the absence of chemical substance (yeast gene YDR529C, cells incubated two hours with the chemical substance): 0.6
- The level of expressed mRNA in the presence of chemical substance/The level of expressed mRNA in the absence of chemical substance (yeast gene YEL024W, cells incubated two hours with the chemical substance): 0.8
- The level of expressed mRNA in the presence of chemical substance/The level of expressed mRNA in the absence of chemical substance (yeast gene YEL039C, cells incubated two hours with the chemical substance): 0.6
- The level of expressed mRNA in the presence of chemical substance/The level of expressed mRNA in the absence of chemical substance (yeast gene YER178W): 1.3
- The level of expressed mRNA in the presence of chemical substance/The level of expressed mRNA in the absence of chemical substance (yeast gene YFL057C): 1.0
- The level of expressed mRNA in the presence of chemical substance/The level of expressed mRNA in the absence of chemical substance (yeast gene YFR053C): 1.7
- The level of expressed mRNA in the presence of chemical substance/The level of expressed mRNA in the absence of chemical substance (yeast gene YGL018C, cells incubated two hours with the chemical substance): 1.0
- The level of expressed mRNA in the presence of chemical substance/The level of expressed mRNA in the absence of chemical substance (yeast gene YGL062W): 1.6
- The level of expressed mRNA in the presence of chemical substance/The level of expressed mRNA in the absence of chemical substance (yeast gene YGL187C, cells incubated two hours with the chemical substance): 0.8
- The level of expressed mRNA in the presence of chemical substance/The level of expressed mRNA in the absence of chemical substance (yeast gene YGL191W, cells incubated two hours with the chemical substance): 0.9
- The level of expressed mRNA in the presence of chemical substance/The level of expressed mRNA in the absence of chemical substance (yeast gene YGL205W, cells incubated two hours with the chemical substance): 1.1
- The level of expressed mRNA in the presence of chemical substance/The level of expressed mRNA in the absence of chemical substance (yeast gene YGL256W, cells incubated two hours with the chemical substance): 0.9
- The level of expressed mRNA in the presence of chemical substance/The level of expressed mRNA in the absence of chemical substance (yeast gene YGR043C): 3.3
- The level of expressed mRNA in the presence of chemical substance/The level of expressed mRNA in the absence of chemical substance (yeast gene YGR062C, cells incubated two hours with the chemical substance, 25° C., YPD medium): 1.0
- The level of expressed mRNA in the presence of chemical substance/The level of expressed mRNA in the absence of chemical substance (yeast gene YGR087C, cells incubated two hours with the chemical substance): 1.2
- The level of expressed mRNA in the presence of chemical substance/The level of expressed mRNA in the absence of chemical substance (yeast gene YGR174C, cells incubated two hours with the chemical substance): 0.9
- The level of expressed mRNA in the presence of chemical substance/The level of expressed mRNA in the absence of chemical substance (yeast gene YGR192C): 2.2
- The level of expressed mRNA in the presence of chemical substance/The level of expressed mRNA in the absence of chemical substance (yeast gene YGR244C): 1.9
- The level of expressed mRNA in the presence of chemical substance/The level of expressed mRNA in the absence of chemical substance (yeast gene YGR254W): 1.7
- The level of expressed mRNA in the presence of chemical substance/The level of expressed mRNA in the absence of chemical substance (yeast gene YHR179W): 2.2
- The level of expressed mRNA in the presence of chemical substance/The level of expressed mRNA in the absence of chemical substance (yeast gene YIL160C): 1.0
- The level of expressed mRNA in the presence of chemical substance/The level of expressed mRNA in the absence of chemical substance (yeast gene YIR031C, cells incubated two hours with the chemical substance): 0.8
- The level of expressed mRNA in the presence of chemical substance/The level of expressed mRNA in the absence of chemical substance (yeast gene YJL052W): 2.4
- The level of expressed mRNA in the presence of chemical substance/The level of expressed mRNA in the absence of chemical substance (yeast gene YJL121C, cells incubated two hours with the chemical substance): 0.6
- The level of expressed mRNA in the presence of chemical substance/The level of expressed mRNA in the absence of chemical substance (yeast gene YJL166W, cells incubated two hours with the chemical substance): 0.7
- The level of expressed mRNA in the presence of chemical substance/The level of expressed mRNA in the absence of chemical substance (yeast gene YJL216C, cells incubated two hours with the chemical substance): 1.0
- The level of expressed mRNA in the presence of chemical substance/The level of expressed mRNA in the absence of chemical substance (yeast gene YJR009C): 1.5
